Results published in ChEMBL document CHEMBL5126592, “Design, synthesis and activity against drug-resistant bacteria evaluation of C-20, C-23 modified 5-O-mycaminosyltylonolide derivatives” (Eur J Med Chem, 2022).
≈ marks a conversion by molar mass, not a printed value.

Key:
Format in all cases: functional
Details in all cases: time 16-20 hrs
Cronobacter sakazakii = test: Antibacterial activity against Cronobacter sakazakii ATCC 29544 incubated for 16 to 20 hrs by broth microdilution method
Escherichia coli [1] = test: Antibacterial activity against Escherichia coli ATCC 25922 incubated for 16 to 20 hrs by broth microdilution method
Pseudomonas aeruginosa = test: Antibacterial activity against Pseudomonas aeruginosa LTP-3 incubated for 16 to 20 hrs by broth microdilution method
[2] = tested on: Streptococcus dysgalactiae; test: Antibacterial activity against Streptococcus dysgalactiae incubated for 16 to 20 hrs by broth microdilution method
Klebsiella pneumoniae = test: Antibacterial activity against Klebsiella pneumoniae ATCC 13883 incubated for 16 to 20 hrs by broth microdilution method
Enterococcus faecium = test: Antibacterial activity against Enterococcus faecium incubated for 16 to 20 hrs by broth microdilution method
[3] = tested on: Staphylococcus chromogenes; test: Antibacterial activity against Staphylococcus chromogenes incubated for 16 to 20 hrs by broth microdilution method
Staphylococcus aureus [4] = test: Antibacterial activity against Staphylococcus aureus ATCC 25923 incubated for 16 to 20 hrs by broth microdilution method
Escherichia coli [5] = test: Antibacterial activity against Escherichia coli incubated for 16 to 20 hrs by broth microdilution method
Staphylococcus aureus [6] = test: Antibacterial activity against Staphylococcus aureus incubated for 16 to 20 hrs by broth microdilution method

Row | Structure (SMILES) | MIC (Cronobacter sakazakii) [µg/mL] | MIC (Escherichia coli [1]) [µg/mL] | MIC (Pseudomonas aeruginosa) [µg/mL] | MIC [2] [µg/mL] | MIC (Klebsiella pneumoniae) [µg/mL] | MIC (Enterococcus faecium) [µg/mL] | MIC [3] [µg/mL] | MIC (Staphylococcus aureus [4]) [µg/mL] | MIC (Escherichia coli [5]) [µg/mL] | MIC (Staphylococcus aureus [6]) [µg/mL]
1 | CN[C@H](CC(C)C)C(=O)N[C@H]1C(=O)N[C@@H](CC(N)=O)C(=O)N[C@H]2C(=O)N[C@H]3C(=O)N[C@H](C(=O)N[C@H](C(=O)O)c4cc(O)cc(O)c4-c4cc3ccc4O)[C@H](O)c3ccc(c(Cl)c3)Oc3cc2cc(c3O[C@@H]2O[C@H](CO)[C@@H](O)[C@H](O)[C@H]2O[C@H]2C[C@](C)(N)[C@H](O)[C@H](C)O2)Oc2ccc(cc2Cl)[C@H]1O [VANCOMYCIN] | 32 (≈ 22.1 µM) | 32 (≈ 22.1 µM) | 32 (≈ 22.1 µM) | 16 (≈ 11 µM) | 32 (≈ 22.1 µM) | 16 (≈ 11 µM) | 8 (≈ 5.52 µM) | 0.25 (≈ 0.173 µM) | > 32 | –
2 | CC[C@H]1OC(=O)C[C@@H](O)[C@H](C)[C@@H](O[C@@H]2O[C@H](C)[C@@H](O)[C@H](N(C)C)[C@H]2O)[C@@H](CCN(Cc2ccccc2)Cc2cn(-c3cnc4ccccc4c3)nn2)C[C@@H](C)C(=O)/C=C/C(C)=C/[C@@H]1CO | 32 (≈ 35.7 µM) | 8 (≈ 8.92 µM) | 4 (≈ 4.46 µM) | 0.5 (≈ 0.557 µM) | 8 (≈ 8.92 µM) | 4 (≈ 4.46 µM) | 4 (≈ 4.46 µM) | 0.25 (≈ 0.279 µM) | 8 (≈ 8.92 µM) | 0.5 (≈ 0.557 µM)
3 | CC[C@H]1OC(=O)C[C@@H](O)[C@H](C)[C@@H](O[C@@H]2O[C@H](C)[C@@H](O)[C@H](N(C)C)[C@H]2O)[C@@H](CCN(Cc2ccc(Br)cc2)Cc2cn(-c3cnc4ccccc4c3)nn2)C[C@@H](C)C(=O)/C=C/C(C)=C/[C@@H]1CO | 32 (≈ 32.8 µM) | 8 (≈ 8.2 µM) | – | – | 32 (≈ 32.8 µM) | – | – | 0.125 (≈ 0.128 µM) | – | –
4 | CC[C@H]1OC(=O)C[C@@H](O)[C@H](C)[C@@H](O[C@@H]2O[C@H](C)[C@@H](O)[C@H](N(C)C)[C@H]2O)[C@@H](CCN(Cc2ccccc2)Cc2cn(-c3cnc4ccccc4c3)nn2)C[C@@H](C)C(=O)/C=C/C(C)=C/[C@@H]1CN1CCCCCCC1 | 16 (≈ 16.1 µM) | 8 (≈ 8.06 µM) | – | – | 8 (≈ 8.06 µM) | – | – | 1 (≈ 1.01 µM) | – | –
5 | CC[C@H]1OC(=O)C[C@@H](O)[C@H](C)[C@@H](O[C@@H]2O[C@H](C)[C@@H](O)[C@H](N(C)C)[C@H]2O)[C@@H](CCN(Cc2ccncc2)Cc2cn(-c3cnc4ccccc4c3)nn2)C[C@@H](C)C(=O)/C=C/C(C)=C/[C@@H]1CO | 32 (≈ 35.6 µM) | 32 (≈ 35.6 µM) | – | – | 32 (≈ 35.6 µM) | – | – | 0.125 (≈ 0.139 µM) | – | –
6 | CC[C@H]1OC(=O)C[C@@H](O)[C@H](C)[C@@H](O[C@@H]2O[C@H](C)[C@@H](O)[C@H](N(C)C)[C@H]2O)[C@@H](CCN(Cc2ccc(OC)cc2)Cc2cn(-c3cnc4ccccc4c3)nn2)C[C@@H](C)C(=O)/C=C/C(C)=C/[C@@H]1CN1CCCCCCC1 | 16 (≈ 15.7 µM) | 4 (≈ 3.91 µM) | – | – | 16 (≈ 15.7 µM) | – | – | 1 (≈ 0.978 µM) | – | –
7 | CC[C@H]1OC(=O)C[C@@H](O)[C@H](C)[C@@H](O[C@@H]2O[C@H](C)[C@@H](O)[C@H](N(C)C)[C@H]2O)[C@@H](CCN(Cc2ccc(OC)cc2)Cc2cn(-c3cnc4ccccc4c3)nn2)C[C@@H](C)C(=O)/C=C/C(C)=C/[C@@H]1CN1CCCCCC1 | 32 (≈ 31.7 µM) | 8 (≈ 7.93 µM) | – | – | 4 (≈ 3.97 µM) | – | – | 0.5 (≈ 0.496 µM) | – | –
8 | CC[C@H]1OC(=O)C[C@@H](O)[C@H](C)[C@@H](O[C@@H]2O[C@H](C)[C@@H](O)[C@H](N(C)C)[C@H]2O)[C@@H](CCN(Cc2ccc(N(C)C)cc2)Cc2cn(-c3cnc4ccccc4c3)nn2)C[C@@H](C)C(=O)/C=C/C(C)=C/[C@@H]1CN1CCCCCC1 | 8 (≈ 7.83 µM) | 4 (≈ 3.92 µM) | – | – | 4 (≈ 3.92 µM) | – | – | 1 (≈ 0.979 µM) | – | –
9 | CC[C@H]1OC(=O)C[C@@H](O)[C@H](C)[C@@H](O[C@@H]2O[C@H](C)[C@@H](O)[C@H](N(C)C)[C@H]2O)[C@@H](CCN(C)Cc2cn(-c3cnc4ccccc4c3)nn2)C[C@@H](C)C(=O)/C=C/C(C)=C/[C@@H]1CN1CCC(O)CC1 | 32 (≈ 35.4 µM) | 16 (≈ 17.7 µM) | – | – | 16 (≈ 17.7 µM) | – | – | 8 (≈ 8.85 µM) | – | –
10 | CC[C@H]1OC(=O)C[C@@H](O)[C@H](C)[C@@H](O[C@@H]2O[C@H](C)[C@@H](O)[C@H](N(C)C)[C@H]2O)[C@@H](CCN(C)Cc2cn(-c3cnc4ccccc4c3)nn2)C[C@@H](C)C(=O)/C=C/C(C)=C/[C@@H]1CI | 32 (≈ 34.4 µM) | 16 (≈ 17.2 µM) | – | – | 32 (≈ 34.4 µM) | – | – | 2 (≈ 2.15 µM) | – | –
11 | CC[C@H]1OC(=O)C[C@@H](O)[C@H](C)[C@@H](O[C@@H]2O[C@H](C)[C@@H](O)[C@H](N(C)C)[C@H]2O)[C@@H](CCN(Cc2cn(-c3cnc4ccccc4c3)nn2)Cc2cncs2)C[C@@H](C)C(=O)/C=C/C(C)=C/[C@@H]1CO | 32 (≈ 35.4 µM) | 32 (≈ 35.4 µM) | – | – | 32 (≈ 35.4 µM) | – | – | 0.5 (≈ 0.553 µM) | – | –
12 | CC[C@H]1OC(=O)C[C@@H](O)[C@H](C)[C@@H](O[C@@H]2O[C@H](C)[C@@H](O)[C@H](N(C)C)[C@H]2O)[C@@H](CCN(Cc2cn(-c3cnc4ccccc4c3)nn2)Cc2ccco2)C[C@@H](C)C(=O)/C=C/C(C)=C/[C@@H]1CN(C)C | 16 (≈ 17.5 µM) | 4 (≈ 4.38 µM) | – | – | 8 (≈ 8.75 µM) | – | – | 0.5 (≈ 0.547 µM) | – | –
